According to article PMC6066528 (Frontiers in Pharmacology, 2018):

Key:
[1] = system: beta-blocking activity; design: method as in Regardh et al., 1974; details: both active metabolites together; ref Regardh et al., 1974; cited from earlier work
[2] = cited from earlier work
[3] = target: recombinant human CYP3A4 supersomes (Homo sapiens, UniProt P08684)
Description: (§1) Microsomes and supersomes were stored at −80°C until used.
(§2) For inhibition studies, the reaction mixture was pre-incubated with the specific inhibitors (concentrations indicated in the figures) for 10 min prior to the addition of test compounds and NADPH. […] Following the incubation in the absence (control) or presence of inhibitors, the reactions were terminated at selected time-points by transferring 50 μL of the incubation mixture into a matrix autosampler vial, to which a threefold volume of ice-cold methanol (containing the internal standards) was added. […] The formation rate (pmol/min/pmol P450) in the absence and the presence of the inhibitors was calculated from the linear parts of the concentration-time curves and expressed as an absolute value or as a percentage relative to the control values.
(§3) Chromatographic separation was performed on a Shimadzu HPLC system (Shimadzu AG, Reinach, Switzerland), coupled to a triple quadrupole tandem mass spectrometer (API4000 or API5500, AB/MDS Sciex, Concord, Canada), operating in positive electrospray ionization mode.
(§4) The CYP activities were determined as the respective metabolite formation rates corresponding to the slope in the metabolite concentration versus time graphs.

[4] = system: CYP3A4; assay: Metoprolol metabolism by human liver microsomes with ketoconazole; format: in vitro ADME; details: pooled human liver microsomes, pH 7.4, probe metoprolol 25 μM
Description: as §1, §2, §3, §4

[5] = Metoprolol metabolism by human liver microsomes without inhibitor; format: in vitro ADME; details: inhibition studies using human liver microsomes; mean ± 95%CI
Description: as §1, §2, §3, §4

[6] = target: T1, CYP2D6 (Homo sapiens, UniProt P10635); details: ref Johnson and Burlew, 1996; cited from earlier work
[7] = In vivo assessment of CYP induction (Basel phenotyping cocktail before and after rifampicin); details: 15 healthy volunteers, rifampicin 600 mg per day for 7 days
Description: We used the ratio between the induced and the basal state of the Cl/F of midazolam as a marker of CYP3A4 induction.
Experiments were carried out 5 times unless stated otherwise. Means were compared with the two-tailed Student’s t-test using GraphPad Prism 6.0 (GraphPad Software, San Diego, CA, United States). Data are presented as mean ± SD unless stated otherwise. Induction levels above twofold with statistically significant differences (p < 0.05) were considered relevant.

[8] = target: T1, CYP2D6; details: primary human hepatocytes; without reaching statistical significance; ref Madan et al., 2003; cited from earlier work
[9] = target: T1, CYP2D6; assay: Metoprolol metabolism by human liver microsomes with quinidine
Description: as §1, §2, §3, §4

[10] = system: CYP2D6 mRNA; assay: rt-PCR quantification of CYP2D6 mRNA in HepaRG cells after rifampicin; format: cell-based, human
Description: HepaRG cells were purchased from Biopredic International (Rennes, France) as undifferentiated cryopreserved cells with the associated medium. Freshly split HepaRG cells were seeded at 9000 cells/well in 96-well plates (or 0.05 × 10^6 cells/well in 24-well plates) and treated over the course of the next 4 weeks as previously described ([Aninat et al., 2006]).
(§5) A total of 350 μL of RLT buffer (Qiagen, Hombrechtikon, Switzerland) was used to lyse the respective liver cell models, after which the lysate was transferred to Qiashredder columns and centrifuged for 2 min at 13,000 rpm. From the eluate, total RNA was extracted and purified according to the manufacturer’s instructions (Qiagen, RNeasy mini extraction kit). The concentration of the extracted RNA was measured spectrophotometrically at 260 nm on a NanoDrop 2000 (Thermo Fisher Scientific, Wohlen, Switzerland). cDNA was reverse transcribed from the isolated RNA using the Qiagen omniscript system. For quantitative rt-PCR, 10 ng cDNA was used. […] Quantification of mRNA expression levels was performed using the comparative-threshold cycle method ([Livak and Schmittgen, 2001]).

[11] = system: CYP2D6 mRNA; assay: rt-PCR quantification of CYP2D6 mRNA in primary human hepatocytes after rifampicin; format: cell-based; details: primary human hepatocytes Lot #Hu8119; rifampicin 20 μM 48 h
Description: Primary cryopreserved human hepatocytes (Life Technologies, Lot #Hu8119 and Lot #Hu8124) were plated at 0.05 × 10^6 cells/well in collagen type-1 precoated 96-well plates (or 0.25 × 10^6 cells/well in 24-well plates) in William’s E medium supplemented with 10% FCS (v/v), 1% L-glutamine 200 mM (v/v), 1% Pen Strep (v/v), 0.1% dexamethasone 100 μM (v/v), and 0.1% insulin 100 μM (v/v), and then incubated at 37°C in the presence of 5% CO2 and 95% humid air.
as §5

[12] = system: primary human hepatocytes
Description: Experimental control culture wells were treated with solvent [DMSO, 0.1% (v/v)] alone. […] The bottoms of the wells were scraped using a pipette tip, after which the contents were transferred to an autosampler vial.
as §3, §4
For induction experiments, metabolite formation rates were determined as described above, and the fold change versus the basal conditions was calculated as the ratio of the metabolite formation rate in wells exposed to an inducer versus formation rates in control wells.

[13] = target: T1, CYP2D6; design: Pooled human liver microsomes (HLM; Lot #38289); tissue Corning Life science Lot #38289; host or cells: pooled human liver microsomes; method as in Glaeser et al., 2005; details: enterocytes of human subjects; 600 mg rifampicin for 10 days; without reaching statistical significance; ref Glaeser et al., 2005; cited from earlier work

T1 sequence (P10635 whole entry): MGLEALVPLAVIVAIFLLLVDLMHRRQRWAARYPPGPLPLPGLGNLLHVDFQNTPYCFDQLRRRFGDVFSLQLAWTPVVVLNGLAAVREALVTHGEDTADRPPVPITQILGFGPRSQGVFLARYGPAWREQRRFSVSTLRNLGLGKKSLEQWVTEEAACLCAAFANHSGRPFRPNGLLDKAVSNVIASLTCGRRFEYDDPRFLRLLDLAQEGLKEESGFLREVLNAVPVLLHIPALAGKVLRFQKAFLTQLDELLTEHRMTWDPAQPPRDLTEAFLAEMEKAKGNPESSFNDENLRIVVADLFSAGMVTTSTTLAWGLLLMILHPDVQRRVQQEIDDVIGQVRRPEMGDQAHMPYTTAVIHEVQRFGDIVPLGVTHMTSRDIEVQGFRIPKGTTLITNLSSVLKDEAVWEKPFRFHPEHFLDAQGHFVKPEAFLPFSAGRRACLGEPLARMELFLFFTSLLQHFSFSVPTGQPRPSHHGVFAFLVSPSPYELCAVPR
Sequence of recombinant human CYP3A4 supersomes (P08684 whole entry): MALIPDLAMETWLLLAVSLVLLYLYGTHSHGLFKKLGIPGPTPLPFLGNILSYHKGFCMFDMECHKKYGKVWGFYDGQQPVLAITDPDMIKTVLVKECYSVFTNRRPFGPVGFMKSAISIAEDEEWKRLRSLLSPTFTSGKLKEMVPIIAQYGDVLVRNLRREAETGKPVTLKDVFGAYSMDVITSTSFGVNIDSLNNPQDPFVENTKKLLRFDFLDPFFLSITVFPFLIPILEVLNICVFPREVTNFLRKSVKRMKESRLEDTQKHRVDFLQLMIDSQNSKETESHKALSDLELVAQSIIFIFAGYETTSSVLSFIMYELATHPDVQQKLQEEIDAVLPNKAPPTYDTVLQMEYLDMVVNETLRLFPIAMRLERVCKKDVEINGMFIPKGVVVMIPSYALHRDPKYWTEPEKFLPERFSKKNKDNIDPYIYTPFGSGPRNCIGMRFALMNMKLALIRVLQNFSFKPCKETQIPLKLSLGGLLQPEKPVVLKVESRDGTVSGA

CC(C)NCC(O)COc1ccc(CCO)cc1 (centres unmarked) [O-demethylmetoprolol]
contribution to the total beta-blocking activity of metoprolol [1]: approximately 10%

COCCc1ccc(OC[C@H](O)CNC(C)C)cc1 [R-metoprolol]
clearance higher than that of S-metoprolol ([2]; human, in vivo): 40%

COc1ccc2c(c1)[C@]13CCCC[C@@H]1[C@H](C2)N(C)CC3 [dextromethorphan]
conversion to dextrorphan ([3]; rhCYP3A4 supersomes, check for CYP2D6 activity, data not shown): not quantifiable

CC(=O)N1CCN(c2ccc(OCC3COC(Cn4ccnc4)(c4ccc(Cl)cc4Cl)O3)cc2)CC1 (centres unmarked) [ketoconazole]
inhibition at 1 μM [4]: 9.9 to 17.5%

COCCc1ccc(OCC(O)CNC(C)C)cc1 (centres unmarked) [metoprolol]
contribution of CYP3A4, 2B6, and 2C9 together to N-dealkylation of metoprolol [5]: 7.6 ± 1.7%
contribution of CYP3A4, 2B6, and 2C9 together to O-demethylation of metoprolol [5]: 19.0 ± 2.6%
contribution of CYP3A4, 2B6, and 2C9 together to α-hydroxylation of metoprolol [5]: 4.0 ± 0.7%
bioavailability ([2]; oral, ref Regardh and Johnsson, 1980): approximately 50%
part of orally administered metoprolol metabolized by CYP2D6 [6]: Approximately 70%

Cc1ncc2n1-c1ccc(Cl)cc1C(c1ccccc1F)=NC2 [midazolam]
formation of 1′-OH-midazolam from midazolam by CYP3A4 overexpressing supersomes ([3]; recombinant enzyme): rapid
clearance of midazolam after rifampicin ([7]; 2 mg midazolam, all subjects): increase

CCC1(c2ccccc2)C(=O)NC(=O)NC1=O [phenobarbital]
increase of the activity of dextromethorphan O-demethylation [8]: almost identical effect

C=C[C@H]1C[N@@]2CC[C@H]1C[C@@H]2[C@@H](O)c1ccnc2ccc(OC)cc12 [quinidine]
block of formation of the phenylacetate metabolite from O-demethylated metoprolol ([9]; HLM, quinidine 1 μM): blocked completely
activity at 1 μM ([9]; human, pooled human liver microsomes, pH 7.4, probe metoprolol 25 μM): 8%

CO[C@H]1/C=C/O[C@@]2(C)Oc3c(C)c(O)c4c(O)c(c(/C=N/N5CCN(C)CC5)c(O)c4c3C2=O)NC(=O)/C(C)=C\C=C\[C@H](C)[C@H](O)[C@@H](C)[C@@H](O)[C@@H](C)[C@H](OC(C)=O)[C@@H]1C [rifampicin]
induction of CYP2D6 mRNA ([10]; HepaRG cells, rifampicin 20 μM for 48 h): not induced
effect on CYP2D6 mRNA ([10]; both cell models (HepaRG cells and primary human hepatocytes), 20 μM rifampicin): not affected
CYP2D6 mRNA expression levels [11]: no increase
increase in O-demethylation of metoprolol ([12]; primary human hepatocytes Lot #Hu8124, rifampicin 20 μM 48 h): 1.4 factor
increase in production of α-OH-metoprolol ([12]; primary human hepatocytes treated with rifampicin (Figure 3D, lot #Hu8124)): 75%
increase of the activity of dextromethorphan O-demethylation [8]: 1.3 factor
increase of CYP2D6 protein expression [13]: 1.6 factor

COCC(O)c1ccc(OCC(O)CNC(C)C)cc1 (stereo not drawn) [α-OH-metoprolol]
contribution to the total beta-blocking activity of metoprolol [1]: approximately 10%
increase in α-OH-metoprolol formation / AUC after rifampicin ([7]; 12.5 mg metoprolol oral, statistically not significant): 9%
